Tested on: mutant MTPfo-4
Experiment: Tolerance to other acids by OD600, mutant MTPfo-4
Type: cell-based, Saccharomyces cerevisiae
Settings: pH 2.44, OD600 over 72 h
Experimental: To analyze the tolerance of the mutant MTPfo-4 to other acids, 10 acids, including 2 inorganic acids of HCl and H3PO4, and 8 organic acids of lactic acid, malic acid, fumaric acid, succinate acid, tartaric acid, furoic acid, gluconic acid, and citric acid, were added exogenously in the present invention to analyze the acid tolerance of cells. The initial pH was controlled to 2.44. The cells were sampled every 12 h for consecutive 72 h. The acid tolerance of cells was analyzed by determining the OD600. […] The cells were sampled every 12 h for consecutive 72 h. The acid resistance of the cells was analyzed again by determining the OD600.

Row | Compound | effect of the acid on the mutant MTPfo-4
1 | O=C(O)/C=C/C(=O)O [fumaric acid] | inhibitory effect
2 | O=C(O)CCC(=O)O [succinic acid] | inhibitory effect
3 | O=C(O)C(O)C(O)C(=O)O (stereo not shown) [tartaric acid] | inhibitory effect
4 | O=C(O)c1ccco1 [furoic acid] | inhibitory effect

Source: patent publication US11618909B2, “Acid-tolerant Saccharomyces cerevisiae and use thereof” (JIANGNAN UNIVERSITY, priority 2020, dated 2023)
